Patent US6849612B2, “Oligonucleotide modulation of cell adhesion” (ISIS Pharmaceuticals, Inc., priority 1993, dated 2005)
Strand notation (5' to 3'): a small letter for the sugar, then the base; units joined by * are phosphorothioate-linked, units joined directly phosphodiester-linked; [ ] holds rarer units or linkages, { } end groups; capitals alone tell only the bases. d = 2'-deoxy (DNA)

Columns and labels:
leukocyte migration = assay: Leukocyte migration into carrageenan-soaked sponges in mice; assay type: in vivo, mouse; details: 3 mg/kg oral, after surgery, 6-8 hours later and at 21 hours; vs vehicle control
ICAM-1 [1] = assay: ELISA of ICAM-1 cell surface expression in C8161 human melanoma cells; assay type: cell-based; details: 15 μg/ml Lipofectin, 5 ng/ml TNF-α 16 hours
Experimental: (§1) ICAM-1 expression on the cell surface was measured by ELISA. Cells were treated with increasing concentrations of antisense oligonucleotides in the presence of 15 μg/ml Lipofectin for 4 hours at 37° C. ICAM-1 expression was induced by incubation with 5 ng/ml TNF-α for 16 hours. Cells were washed 3× in DPBS and fixed for 20 minutes in 2% formaldehyde. Cells were washed in DPBS, blocked with 2% BSA for 1 hour at 37° C. and incubated with ICAM-1 monoclonal antibody 84H10 (AMAC, Inc., Westbrook, Me.). Detection of bound antibody was determined by incubation with a biotinylated goat anti-mouse IgG followed by incubation with […] streptavidin and developed with chlorophenol red-β-D-galactopyranoside and quantified by absorbance at 575 nm. ICAM-1 mRNA levels were measured by Northern blot analysis.
The data were expressed as percentage of control activity, calculated as follows: (ICAM-1 expression for oligonucleotide-treated, cytokine-induced cells)−(basal ICAM-1 expression)/(ICAM-1 cytokine-induced expression)−(basal ICAM-1 expression)×100.

ICAM-1 mRNA = assay: Northern blot of ICAM-1 mRNA in C8161 cells; assay type: cell-based, human; details: Northern blot analysis
Experimental: as §1

ICAM-1 [2] = assay: ELISA of ICAM-1 expression in primary human keratinocytes; assay type: cell-based
Experimental: (§2) Expression of ICAM-1, VCAM-1 and ELAM-1 on the surface of cells can be quantitated using specific monoclonal antibodies in an ELISA. Cells are grown to confluence in 96 well microtiter plates. The cells are stimulated with either interleukin-1 or tumor necrosis factor for 4 to 8 hours to quantitate ELAM-1 and 8 to 24 hours to quantitate ICAM-1 and VCAM-1. Following the appropriate incubation time with the cytokine, the cells are gently washed three times with a buffered isotonic solution containing calcium and magnesium such as Dulbecco's phosphate buffered saline (D-PBS). The cells are then directly fixed on the microtiter plate with 1 to 2% paraformaldehyde diluted in D-PBS for 20 minutes at 25° C. The cells are washed again with D-PBS three times. Nonspecific binding sites on the microtiter plate are blocked with 2% bovine serum albumin in D-PBS for 1 hour at 37° C. Cells are incubated with the appropriate monoclonal antibody diluted in blocking solution for 1 hour at 37° C. Unbound antibody is removed by washing the cells three times with D-PBS. Antibody bound to the cells is detected by incubation with a 1:1000 dilution of biotinylated goat anti-mouse IgG (Bethesda Research Laboratories, Gaithersburg, Md.) in blocking solution for 1 hour at 37° C. Cells are washed three times with D-PBS and then incubated with a 1:1000 dilution of streptavidin conjugated to β-galactosidase (Bethesda Research Laboratories) for 1 hour at 37° C. The cells are washed three times with D-PBS for 5 minutes each. The amount of β-galactosidase bound to the specific monoclonal antibody is determined by developing the plate in a solution of 3.3 mM chlorophenolred-β-D-galactopyranoside, 50 mM sodium phosphate, 1.5 mM MgCl2; pH=7.2 for 2 to 15 minutes at 37° C. The concentration of the product is determined by measuring the absorbance at 575 nm in an ELISA microtiter plate reader. […]
(§3) Cells grown in 96-well plates were washed three times with Opti-MEM (GIBCO, Grand Island, N.Y.) prewarmed to 37° C. […] ICAM-1 expression was determined as described in Example 1. […]

[3] = system: C8161 human melanoma cells; assay: Experimental metastasis assay of oligonucleotide-treated C8161 cells in athymic nude mice; assay type: in vivo
Experimental: To evaluate the role of ICAM-1 in metastasis, experimental metastasis assays were performed by injecting 1×10^5 C8161 cells into the lateral tail vein of athymic nude mice. […] Assoc. Cancer Res. 1990, 13, 353].
After 4 weeks, mice were sacrificed, organs were fixed in Bouin's fixative and metastatic lesions on lungs were scored with the aid of a dissecting microscope. Four-week-old female athymic nude mice (Harlan Sprague Dawley) were used. Animals were maintained under the guidelines of the NIH. Groups of 4-8 mice each were tested in experimental metastasis assays.
Treatment of C8161 cells with antisense oligonucleotides ISIS 1570 and ISIS 2302, complementary to ICAM-1, was performed in the presence of the cationic lipid, Lipofectin (Gibco/BRL, Gaithersburg, Md.). Antisense oligonucleotides were synthesized as described in Example 3. Cells were seeded in 60 mm tissue culture dishes at 10^6 cells/ml and incubated at 37 °C for 3 days, washed with OPTI-MEM (Gibco/BRL) 3 times and 100 μl of OPTI-MEM medium was added to each well. 0.5 μM oligonucleotide and 15 μg/ml lipofectin were mixed at room temperature for 15 minutes. 25 μl of the oligonucleotide-lipofectin mixture was added to the appropriate dishes and incubated at 37° C. for 4 hours. The oligonucleotide-lipofectin mixture was removed and replaced with DME-F12 medium containing 10% fetal calf serum. After 4 hours, 500 U/ml TNF-α was added to the appropriate wells and incubated for 18 hours at which time cells were removed from the plates, counted and injected into athymic nude mice.

[4] = system: human corneal donor buttons; assay: Human corneal donor buttons stored in OPTISOL with ISIS 2302
Experimental: Eleven human corneal donor buttons were stored in TM OPTISOL™ for 8 days and used as the control group. Additional corneal buttons were used for the experimental group and were stored in OPTISOL™ with either 200 μg/ml ISIS 2302 (n=10) or 400 μg/ml ISIS 2302 (n=8). Endothelial cell density was evaluated by specular microscopy. After 8 days, all corneas were prepared for SEM and photographs were taken of endothelial and epithelial surfaces.

ICAM-1 [5] = assay: ELISA of ICAM-1 expression in A431 cells; assay type: cell-based; details: human epidermal carcinoma A431 cells
Experimental: as §2, §3

ICAM-1 [6] = assay: ELISA screening for ICAM-1 expression in interleukin-1β-stimulated cells (HUVEC and A549); assay type: cell-based, human; details: interleukin-1β-stimulated cells, two cell lines (HUVEC, A549)

Compound	reduction in mean leukocyte count (leukocyte migration)	cell surface expression of ICAM-1 (ICAM-1 [1])	ICAM-1 mRNA levels (ICAM-1 mRNA)	inhibition of ICAM-1 expression (ICAM-1 [2])	No. Lung Metastases per Mouse (Mean ± S.E.M.) ([3]; C8161 cells treated with 0.5 μM oligonucleotide + Lipofectin + TNF-α, Lipofectin + TNF-α 81 ± 8)	No. Lung Metastases per Mouse (Mean ± S.E.M.) ([3]; C8161 cells treated with 0.5 μM oligonucleotide + Lipofectin, no TNF-α, Lipofectin only 64 ± 13)	toxicity to stored human corneas [4]	endothelial cell density by specular microscopy ([4]; 200 or 400 μg/ml in OPTISOL, after 2 or 8 days of storage, vs control)	inhibition of ICAM-1 expression (ICAM-1 [5])	inhibition of ICAM-1 expression, relative activity in words (ICAM-1 [6])
COc1ccc2c(c1)c(CC(=O)O)c(C)n2C(=O)c1ccc(Cl)cc1 [indomethacin]	79%									
ISIS 2302: P=S, human ICAM-1 3′-Untranslated (2114-2133), SEQ ID NO 22 (antisense dG*dC*dC*dC*dA*dA*dG*dC*dT*dG*dG*dC*dA*dT*dC*dC*dG*dT*dC*dA)		decreased cell surface expression of ICAM-1	markedly reduced	inhibit ICAM-1 expression	31 ± 8	23 ± 6	not markedly toxic	no difference in endothelial cell density	inhibit ICAM-1 expression	most active of the series, with activity comparable to that of ISIS 1939
